Tests used:
FLT3 = molecular target: T1, FLT3 (Homo sapiens, UniProt P36888); assay: FLT3 inhibition, FRET based Z'-LYTE Kinase Assay; type: biochemical; conditions: 1 nM FLT3, 940 μM ATP; read-out: IC50 Range Flt3
T1 construct: purchased Invitrogen PV3182
T1 sequence (P36888 27-993): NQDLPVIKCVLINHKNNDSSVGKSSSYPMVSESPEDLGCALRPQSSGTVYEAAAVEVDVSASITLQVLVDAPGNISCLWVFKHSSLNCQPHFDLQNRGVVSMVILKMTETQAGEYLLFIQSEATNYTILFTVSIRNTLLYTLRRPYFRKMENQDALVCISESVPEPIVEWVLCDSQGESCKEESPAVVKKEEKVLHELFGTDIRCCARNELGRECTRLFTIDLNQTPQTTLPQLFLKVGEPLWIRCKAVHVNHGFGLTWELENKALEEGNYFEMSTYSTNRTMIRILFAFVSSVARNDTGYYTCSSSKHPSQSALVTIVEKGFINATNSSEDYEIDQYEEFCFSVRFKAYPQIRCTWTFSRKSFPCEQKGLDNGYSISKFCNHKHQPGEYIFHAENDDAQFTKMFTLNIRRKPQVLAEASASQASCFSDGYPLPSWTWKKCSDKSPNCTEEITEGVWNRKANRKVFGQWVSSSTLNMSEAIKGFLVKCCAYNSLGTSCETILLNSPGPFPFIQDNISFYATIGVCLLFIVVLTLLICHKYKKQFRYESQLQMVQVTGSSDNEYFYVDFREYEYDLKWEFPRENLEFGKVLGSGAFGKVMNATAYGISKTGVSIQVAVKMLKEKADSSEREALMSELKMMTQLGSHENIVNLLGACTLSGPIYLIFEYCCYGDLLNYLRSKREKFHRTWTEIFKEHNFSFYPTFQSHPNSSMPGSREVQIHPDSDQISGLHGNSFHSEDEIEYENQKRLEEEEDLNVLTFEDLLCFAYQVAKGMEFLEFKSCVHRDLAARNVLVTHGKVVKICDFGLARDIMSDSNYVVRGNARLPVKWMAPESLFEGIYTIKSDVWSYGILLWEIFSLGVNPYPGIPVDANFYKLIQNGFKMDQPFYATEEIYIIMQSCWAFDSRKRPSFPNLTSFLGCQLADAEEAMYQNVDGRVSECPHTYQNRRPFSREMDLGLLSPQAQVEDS
Method: FLT3 and LCK compound inhibition were determined using FRET based Z′-LYTE Kinase Assay Kit with Tyrosine 2 peptide as the substrate (Invitrogen cat #PV3191). […] The % inhibition values were determined according to the manufacturer's directions and IC50 values were obtained using a non-linear 4 point logistic curve fit (XLfit4, IDBS).

CT26 WT colon carcinoma = assay: Syngeneic CT26 cell line xenograft model; type: in vivo; conditions: for Survival (tumour size <1500 mm^3 at day 21): 8 animals
Method: Six to eight week old female BALB/c mice were purchased from Jackson Laboratories and received and acclimated at the MaRS-TMDT Animal Resources Centre for 1 week prior to the start of the experiment. […] Mice were housed in microisolator cages and maintained in an environment with a 12 h light cycle at 20-22° C. and 40-60% humidity. On the day of implantation, CT26 cells were harvested and re-suspended with serum free RPMI1640 to a concentration of 1×10^7/mL and each mouse was injected subcutaneously with a volume of 0.1 mL containing 1×10^6 CT26 cells in the right rear flank. […] Toxicity was evaluated by body weight measurements and clinical observations. Tumour measurements and body weights were taken three times per week.
According to University Health Network (UHN) Animal Use Protocols (AUPs), mice in efficacy experiments should be sacrificed when the tumour size is above 1500 mm^3 or if the bodyweight of the animal decreases or if the animals are displaying clinical signs that require termination for humane reasons. […] A tumour size of <1500 mm^3 at day 21 was used as a cutoff to represent survival.

[1] = system: SLP-76 serine 376 phosphorylation in α-CD3 stimulated Jurkat E6.1 cells; assay: In vitro phosphorylation assay, SLP-76 Ser376 (immunoblot); type: cell-based; conditions: Homo sapiens, 4 h pretreatment, substantive = >75% inhibition as estimated by immunoblot analysis, read-out: SLP76 S376 Phosphorylation Onset-Substantive* Inhibition
Method: Jurkat E6.1 cells were obtained from American Type Culture Collection (ATCC, Manassas, Va.), and maintained according to the supplier's instructions. Cells were washed three times and starved in RPMI 1640 medium supplemented with 0.5% fetal calf serum for 18 h at 37° C. Serum starved cells were pretreated with the indicated concentration of inhibitor for 4 hours before stimulation with 10 μg/ml α-CD3 antibody (BioLegend, Inc., San Diego, Calif.) for 10 min at 37° C. The cells were washed once in phosphate-buffered saline (pH 7.4) containing 10 mm sodium pyrophosphate, 10 mm sodium fluoride, 10 mm EDTA, and 1 mm sodium orthovanadate. Protein lysates were prepared using ice-cold radioimmunoprecipitation assay (RIPA) lysis buffer. A total of 100 μg of cell lysate was loaded onto Bis-Tris gels (Life Technologies, Carlsbad, Calif.) with full-range molecular weight marker as a size reference, and resolved by SDS-PAGE electrophoresis. Proteins were transferred to PVDF membrane (Millipore, Billerica, Mass.), blocked and probed with antibodies for phospho-SLP-76 (Ser376) (rabbit polyclonal #13177; Cell Signaling Technology Inc., Danvers, Mass.), SLP-76 (rabbit polyclonal #4958; Cell Signaling Technology Inc., Danvers, Mass.), phospho-ERK (mouse monoclonal sc-7383; Santa Cruz Biotechnology Inc., Santa Cruz, Calif.) and ERK1/2 (rabbit polyclonal 06-182; Millipore, Billerica, Mass.). Secondary antibodies were diluted 1 in 15,000 and incubated for 1 h at rt. Protein bands were visualized and quantified using Odyssey near infrared imager (LI-COR, Lincoln, Nebr.).
Table 2 below lists effects of representative compounds of the present invention against SLP-76 serine 376 phosphorylation and ERK1/2 T202/Y204 phosphorylation in α-CD3 stimulated Jurkat E6.1 cells.

CN1CCN(c2ccc3nc(-c4c(N)c5ccsc5[nH]c4=O)[nH]c3c2)CC1 [Example A1, 4-amino-5-(6-(4-methylpiperazin-1-yl)-1H-benzo[d]imidazol-2-yl)thieno[2,3-b]pyridin-6(7H)-one] was tested, and the IC50 (FLT3) was at most 50 nM, the “Tumour growth inhibition (TGI)” value (CT26 WT colon carcinoma; 75 mg/kg QD PO for 21 days, day 21, BALB/c mice) was 44% and the “Survival (tumour size <1500 mm^3 at day 21)” value (“Survival” below) (CT26 WT colon carcinoma; 75 mg/kg/day Example A1 arm) was 25%. For the same compound, the “Tumour growth inhibition (TGI)” value (CT26 WT colon carcinoma; 150 mg/kg QD PO Example A1 combined with 150 μg anti-PD-1 antibody IP day 0, 3, 6 and 10, day 21) was 86%, the “Tumour growth inhibition (TGI)” value (CT26 WT colon carcinoma; 150 mg/kg QD PO for 21 days, day 21, BALB/c mice) was 64% and the “Survival” value (CT26 WT colon carcinoma; 150 mg/kg/day Example A1 and anti-PD-1 arm) was 87.5%. The “Survival” value (CT26 WT colon carcinoma; 150 mg/kg/day Example A1 arm) was 37.5%, the “Tolerability (body weight, clinical signs)” value (CT26 WT colon carcinoma; 75 and 150 mg/kg QD PO 21 days, BALB/c mice, all animals gaining weight, none terminated due to clinical signs) was “well tolerated” and the IC75 [1] was 0.3 to 1 µM.
